Assay results published in paper PMC7371863, “Intracellular interplay between cholecystokinin and leptin signalling for satiety control in rats” (Scientific Reports, 2020).
Read-outs that look alike come from different tables or passages of the source.

Columns and labels:
VMN cells = assay: Ca2+ imaging in rat VMN slices; format: cell-based; conditions: for cells responding exclusively to leptin or CCK-8s, VMN (discussion): approximately, population analysis; for Rmax, Ca2+ concentration response / EC50: four-parameter Hill function; for EC50: read-out: EC50, Ca2+ concentration response
VMN neurons = assay: Whole cell patch clamp, action potential firing in VMN neurons; format: cell-based, rat; conditions: for action potential firing frequency: n.s.
Experimental: The VMH slices (300-μm thickness) were prepared following deep pentobarbital anaesthesia administration to postnatal day (PD) 12–16 rats using a vibrating blade microtome in ice-cold high-Mg^2+ artificial cerebrospinal fluid (ACSF) containing 138.6 mM NaCl, 3.35 mM KCl, 21 mM NaHCO3, 0.6 mM NaH2PO4, 9.9 mM D-glucose, 0.5 mM CaCl2, and 4 mM MgCl2 bubbled with 95% O2/5% CO2. The slices were incubated at room temperature for 1 h in regular ACSF containing 2.5 mM CaCl2, and 1.0 mM MgCl2 bubbled with 95% O2/5% CO2. Subsequently, the slices were transferred to an upright microscope stage (Olympus BX50WI). The recording chamber was perfused with oxygenated normal ACSF at 3 ml/min at 34 °C. VMN neurons were visualized through an infrared CCD camera (Hamamatsu Photonics C2741-79). Neurons were recorded in the whole-cell current-clamp mode using a patch-clamp amplifier (Axon Instruments Axopatch 200B). The recordings were performed using patch pipettes with an access resistance of 4–6 MΩ and internal solution containing 135 mM potassium gluconate, 5 mM KCl, 10 mM HEPES, 0.1 mM CaCl2, 1.0 mM EGTA, 10 mM phosphocreatine, 2 mM Mg-ATP, and 0.2 mM Na-GTP (pH adjusted to 7.3 with KOH). The output of the amplifier was digitised using an A/D converter board (Axon Instruments Digidata 1200) with a sampling rate of 10 kHz and recorded on a hard disk by data acquisition software (Axon Instruments pCLAMP 8). Membrane potentials were low-pass-filtered at 2 kHz. Resting membrane potentials less than − 60 mV were set to approximately − 60 mV by current injections. Stimulants were applied by the gravity drop perfusion system. Further details of electrophysiological recordings were described previously.

pSTAT3 in C6-ObRb cells = assay: Immunofluorescent staining of pSTAT3 in C6-ObRb cells; format: cell-based, rat C6 cells, mouse ObRb
Experimental: Rat C6 glioma cells were cultured in Dulbecco’s Modified Eagle Medium/F12 (DMEM/F12) supplemented with 10% FBS, sodium bicarbonate (1.2 g/L), and 1% penicillin/streptomycin antibiotics at 37 °C in 5% CO2. The full-length mouse leptin receptor (ObRb) in pcDNA3.1 vector was kindly provided by Dr. Christian Bjørbaek (BIDMC, Harvard Medical School, Boston, MA, USA) and transfected using Lipofectamine 2000. Subsequently, the cells were cultured in medium containing 500 μg/mL G418 for cell selection.
[…] Cells were treatment with AG490 (1 μM) or LY294002 (50 μM) 15 min prior to the leptin stimulation until the time of fixation. These cells were fixed in 4% phosphate-buffered paraformaldehyde for 15 min and washed three times with PBS(−). The fixed samples were then incubated for 2 h at room temperature in 10% donkey serum dissolved in 0.1% Triton-X PBS(−). Next, samples were incubated with 1:100 affinity-purified rabbit phospho-STAT3 (pTyr^705) dissolved in 5% donkey serum PBS(−) for 24 h at 4 °C. After three 20-min PBS(−) rinses, samples were incubated in 1:400 Cy3-conjugated donkey anti-rabbit IgG for 2 h at room temperature. Finally, samples were rinsed with PBS(−) (four 15-min rinses on an orbital shaker) and mounted using Vectashield containing 4′,6-diamidino-2-phenylindole (DAPI).
(§1) Images were acquired using a confocal laser-scanning microscope (Olympus FV1000 or Nikon A1R MP plus) with a laser diode (405 nm), argon laser (488 nm), and helium neon laser ([…]). The nuclear immunofluorescent intensity (8-bit depth) was analyzed using Photoshop CS 6 software.

[1] = tested on: nuclear pSTAT3 in the rat VMN; assay: Nuclear pSTAT3-ir in VMN after i.c.v. injection; format: in vivo
Experimental: A guide cannula (cut length 5 mm, no. C315G; Plastics One Inc.) was stereotaxically implanted to the right lateral ventricle of each rat, with the coordinates of 0.8 mm posterior to the bregma, 1.4 mm lateral to the midline, and 3.3 mm ventral from the skull surface. The canula was secured on the skull surface with two stainless steel screws and dental acrylic resin. The rats were then allowed to recover in their home cage for at least 1 week. Leptin (4 µg) and CCK (2 µg) were dissolved in 4 µl ACSF and administered through an internal cannula (cut length 5.5 mm, no. C315I; Plastics One Inc. C315I). To minimize the effect of endogenous signals, the rats were deprived of food for 10 h (08:00–18:00) before i.c.v. administration. Drugs were infused at a flow rate of 1 µl/min over 4 min using a motorized syringe pump (Carnegie Medicine model CMA/102), followed by another 4 min of rest for diffusion. One hour after i.c.v. administration, the rat brain was removed for immunohistochemical analysis.
For immunohistochemical analysis of rat hypothalamic slices, animals were deeply anesthetized with an i.p. injection of sodium pentobarbital (50 mg/kg) and transcardially perfused with PBS(−) for 5 min followed by ice-cold 4% (w/v) paraformaldehyde in PBS(−) for 15 min. The brain was removed and further fixed in the same fixative (4 °C, overnight). Then, the olfactory bulbs and/or cerebellum were removed from the brain in ice-cold PBS(−). Pre-trimmed brain tissues were immersed in 30% (w/v) sucrose and stored overnight at 4 °C. The fixed and cryoprotected brain tissues were embedded with OCT compound. Frozen sections of 30 µm thickness were cut using a cryostat microtome and washed three times with PBS(−) in 24-well plates, after which they were mounted on glass slides. […]
as §1

[2] = tested on: cultured vagal afferent neurons; conditions: cited from earlier work
megakaryoblast cells = conditions: co-stimulation with leptin; cited from earlier work
Text: It was previously shown that ADP-induced Ca^2+ mobilization, presumably via Gq-coupled P2Y receptor, was enhanced by co-stimulation with leptin in megakaryoblast cells. Since leptin could phosphorylate the tyrosine residue of Gqα protein by JAK2 (i.e., in AG490-dependent manner) in these cells, leptin could facilitate CCK receptor signalling similarly in C6 cells. […] Thus, further downstream signalling might also involve the activation of p ...

[3] = leptin with co-stimulation of 1 nM CCK-8s

Q: Which “cells responding exclusively to leptin or CCK-8s, VMN (discussion)” value (VMN cells; leptin 500 nM and CCK-8s 10 nM) does the source give for “leptin: peptide hormone secreted from white adipocyte tissue, product of the obese gene; PeproTech Cat#450-31” here?
A: Its value is 5–12%.

Q: What about the “cells that exclusively responded to leptin, VMN” value (VMN cells; leptin 500 nM versus CCK-8s 10 nM, 11 slices, mean with standard error) of the same substance?
A: The value was 12.2 ± 1.5%.

Q: What about the “cells with monophasic Ca2+ increase, VMN” value (VMN cells; leptin 500 nM, 11 slices, 0.5 µM tetrodotoxin, 34 °C, mean with standard error) of the same substance?
A: The value was 65.4 ± 7.5%.

Q: What about the “Rmax, Ca2+ concentration response” value (VMN cells; leptin alone) of the same substance?
A: Its value is 0.2.

Q: What about the EC50 (VMN cells; leptin alone) of the same substance?
A: Its EC50 is 153 nM.

Q: What about the “Rmax, Ca2+ concentration response” value (VMN cells; leptin with 1 µM LGM) of the same substance?
A: The value was 0.14.

Q: And the EC50 (VMN cells; leptin with 1 µM LGM)?
A: The EC50 was 163 nM.

Q: What about the “Rmax, Ca2+ concentration response” value (VMN cells; [3]) of the same substance?
A: Its value is 0.26.

Q: And the EC50 (VMN cells; [3])?
A: Its EC50 is 42.8 nM.

Q: What about the “neurons with apparent (> twofold) increase in firing frequency, co-stimulation” value (VMN neurons; leptin 30 nM with CCK-8s 1 nM) of the same substance?
A: The value was “Five neurons in nine recordings”.

Q: And the “action potential firing frequency, co-stimulation” value (VMN neurons; leptin 30 nM with CCK-8s 1 nM, n = 9, p < 0.01, spontaneous 1.45 ± 0.07 Hz, − 60 mV, 34 °C)?
A: Its value is 3.49 ± 0.68 Hz.

Q: What about the “highest action potential firing frequency, co-stimulation” value (VMN neurons; leptin 30 nM with CCK-8s 1 nM, single neuron maximum) of the same substance?
A: The value was 5.5 Hz.

Q: What about the “action potential firing frequency” value (VMN neurons; leptin 30 nM, n = 9, spontaneous 1.45 ± 0.07 Hz, − 60 mV, 34 °C) of the same substance?
A: Its value is 1.55 ± 0.13 Hz.

Q: And the “nuclear pSTAT3-ir” value (pSTAT3 in C6-ObRb cells; leptin 100 nM, 30 images/three dishes, p < 0.01 one-way ANOVA)?
A: Its value is “significantly increased pSTAT3-ir in the nuclei”.

Q: What about the “number of nuclear pSTAT3-ir in VMN relative to vehicle-injected control” value ([1]; leptin 4 µg i.c.v., 1 h, 10 h food-deprived, p < 0.01) of the same substance?
A: The value was “three times”.

Q: What about the “number of nuclear pSTAT3-ir in VMN, co-administration, versus vehicle” value ([1]; leptin 4 µg with CCK-8s 2 µg i.c.v., 1 h, n.s.) of the same substance?
A: Its value is “failed to increase the number of nuclear pSTAT3-ir”.

Q: And the “cytosolic Ca2+ after leptin stimulation” value [2]?
A: Its value is “cytosolic Ca^2+ increase”.

Q: What about the “ADP-induced Ca2+ mobilization” value (megakaryoblast cells) of the same substance?
A: The value was “enhanced”.

Q: Which results are given for CCK-8s [reference compound]?
A: Ca2+ transients in slice preparation (VMN cells; CCK-8s 1 nM alone, n = 216 in 18 slices): failed to evoke Ca^2+ transients; effect of co-stimulation on leptin-induced Ca2+ responses (VMN cells; CCK-8s 1 nM with leptin 1–1,000 nM, p < 0.01 two-way ANOVA): amplified leptin-induced Ca^2+ responses; cells that exclusively responded to CCK-8s, VMN (VMN cells; CCK-8s 10 nM versus leptin 500 nM, 11 slices, mean with standard error): 5.2 ± 1.1%; leptin responders also responding to CCK-8s, VMN (VMN cells; CCK-8s 10 nM, leptin 500 nM, 11 slices, mean with standard error): 81.3 ± 9.1%; cells responding exclusively to leptin or CCK-8s, VMN (discussion) (VMN cells; leptin 500 nM and CCK-8s 10 nM): 5–12%; cells showing leptin-induced Ca2+ increase that also responded to CCK-8s (discussion) (VMN cells; leptin 500 nM and CCK-8s 10 nM): more than 80%; action potential firing frequency (VMN neurons; CCK-8s 1 nM, n = 9, spontaneous 1.45 ± 0.07 Hz, − 60 mV, 34 °C): 1.28 ± 0.15 Hz; cytosolic pSTAT3-ir (pSTAT3 in C6-ObRb cells; CCK-8s 50 nM): induced cytosolic pSTAT3-ir; nuclear pSTAT3-ir on co-stimulation versus leptin alone (pSTAT3 in C6-ObRb cells; CCK-8s 50 nM with leptin 100 nM, 30 images/three dishes, p < 0.01): significantly smaller than that by leptin stimulation alone; nuclear intensity of pSTAT3-ir versus unstimulated controls (pSTAT3 in C6-ObRb cells; CCK-8s 50 nM, 30 images/three dishes, p < 0.01): significantly smaller in the CCK-8s-treated group than in unstimulated controls; nuclear pSTAT3 levels in VMN versus single leptin injection ([1]; CCK-8s 2 µg co-injected with leptin 4 µg i.c.v.): reduced nuclear pSTAT3 levels in the rat VMN compared with single leptin injections
